Laboratory results from PMC5020499, “Crystal structures of archaeal 2-oxoacid:ferredoxin oxidoreductases from Sulfolobus tokodaii” (Scientific Reports, 2016).

Molecular target: T1, StOFOR2 (Sulfurisphaera tokodaii, UniProt Q96XT2+Q96XT4)
T1 construct: gene ST2435; recombinant in E. coli C43(DE3), genes from S. tokodaii genomic DNA in pOFORAB (pET-17b based), untagged; (ab)2 heterotetramer with TPP, Mg2+, [4Fe-4S]
Assay: X-ray crystal structure, […] Å
Format: binding
Settings: crystal soaked with 50 mM pyruvate for 30 min; active site, unreacted pyruvate

T1 sequence (Q96XT2 whole entry): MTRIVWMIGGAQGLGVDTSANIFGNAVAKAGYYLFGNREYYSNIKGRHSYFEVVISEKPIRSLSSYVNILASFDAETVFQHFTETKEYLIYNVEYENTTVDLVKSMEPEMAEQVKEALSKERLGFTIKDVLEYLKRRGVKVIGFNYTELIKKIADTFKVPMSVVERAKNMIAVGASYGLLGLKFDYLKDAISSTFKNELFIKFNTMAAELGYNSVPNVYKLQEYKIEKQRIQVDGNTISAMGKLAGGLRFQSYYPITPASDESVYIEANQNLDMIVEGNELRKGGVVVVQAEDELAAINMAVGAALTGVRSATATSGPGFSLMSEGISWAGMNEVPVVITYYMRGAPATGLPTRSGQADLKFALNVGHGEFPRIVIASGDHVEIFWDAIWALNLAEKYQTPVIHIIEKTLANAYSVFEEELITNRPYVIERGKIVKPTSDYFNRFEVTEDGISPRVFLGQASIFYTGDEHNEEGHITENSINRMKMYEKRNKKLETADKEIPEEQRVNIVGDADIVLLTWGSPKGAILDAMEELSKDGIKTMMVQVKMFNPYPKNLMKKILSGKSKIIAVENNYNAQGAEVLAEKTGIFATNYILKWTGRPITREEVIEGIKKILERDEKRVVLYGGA
T1 sequence (Q96XT4 whole entry): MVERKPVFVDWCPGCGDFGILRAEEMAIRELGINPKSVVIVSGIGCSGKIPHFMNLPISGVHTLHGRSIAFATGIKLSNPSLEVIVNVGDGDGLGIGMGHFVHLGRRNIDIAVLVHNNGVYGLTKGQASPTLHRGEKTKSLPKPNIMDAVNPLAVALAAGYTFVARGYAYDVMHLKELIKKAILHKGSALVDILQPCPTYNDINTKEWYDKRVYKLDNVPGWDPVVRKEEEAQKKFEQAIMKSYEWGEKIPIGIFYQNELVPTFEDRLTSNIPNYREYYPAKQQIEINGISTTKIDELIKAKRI

`CC(=O)C(=O)O` [pyruvate] was tested. Which “X-ray crystal structure, 2.2 Å” value did it give?
The value was “we observed a separate density peak corresponding to the approximate size and shape of an unreacted pyruvate”.
